According to US9937250B2, “Immunogenic tumor associated stromal cell antigen peptides and methods of their use” (University of Pittsburgh—Of the Commonwealth System of …, priority 2011, dated 2018):

System: CD8+ T cells from HLA-A2+ normal donors or HLA-A2+ melanoma patients
Experiment: In vitro sensitization of human CD8+ T cells with TASA peptide-pulsed autologous DC, IFN-γ ELISA against peptide-pulsed T2 cells
Assay type: cell-based
Protocol: The indicated peptides were pulsed onto autologous DC and used to prime and boost CD8^+ T cells isolated from the peripheral blood of eight normal HLA-A2^+ donors or ten HLA-A2^+ patients with melanoma. Seven days after the primary in vitro sensitization (IVS) (melanoma patients) or a secondary IVS boost (normal donors), T cells were analyzed for their reactivity against HLA-A2^+ T2 cells pulsed with the relevant peptide vs. the negative control HIV-nef190-198 peptide. After 24 hours of co-culture, cell-free supernatants were analyzed for levels of secreted IFN-γ using a commercial ELISA. Data are reported in Bar and Whisker plots, with p-values provided for paired pre- versus post-IVS data from normal donors and patients. In addition, p<0.05 was detected for MEL-Post versus ND-Post for the following peptides: DLK1 (309), NG2 (770), NG2 (2238), PDGFRβ (891) and RGS5 (5).
In vitro assessment of human CD8^+ T cell responses against TASA- or TAA-derived peptides. Peripheral blood mononuclear cells (PBMC) were obtained by venipuncture or leukapheresis from HLA-A2^+ normal donors or HLA-A2^+ melanoma patients with written consent under IRB-approved protocols (Table 3). CD8^+ T cells were then isolated by MACS (Miltenyi Biotec, Auburn, Calif.) and either not stimulated or stimulated with autologous, TASA peptide-pulsed DC as previously described (Tatsumi et al., Cancer Res., 63:4481-4489, 2003). Normal donor T cells were stimulated with TASA peptide-pulsed DC twice on a weekly schedule, with responder T cells harvested for analysis of their specificity 5 days after the booster stimulation (i.e. day 12 of T cell-DC co-culture). Melanoma patient CD8^+ T cells were analyzed after a single round of stimulation with TASA peptide-pulsed, autologous DC (i.e. day 5 of T cell-DC co-culture) as indicated. For DC-based stimulations, DC were pulsed with an equimolar (1 μM each) pool of the TASA peptides (Table 4) for 4 h at 37° C. at 5% CO2 tension. These antigen-loaded DC were then used to stimulate autologous CD8^+ T cells at a T cell-to-DC ratio of 10:1 to generate a bulk population of responder T cells. T cells were maintained in IMDM media supplemented with 10% human AB serum, 100 U/ml penicillin, […], 10 mM L-glutamine and MEM non-essential amino acids (all reagents from Invitrogen, except human AB serum that was purchased from Sigma-Aldrich, St. Louis, Mo.). Responder CD8^+ T cells were analyzed for reactivity against control (HLA-A2^+) T2 cells or T2 cells pulsed with individual TASA or TAA peptides (1 μM for 4 h at 37° C.) at a CD8^+ T cell-to-T2 cell ratio of 5:1 for 24 h. Harvested cell-free supernatants were consequently assessed for hIFN-γ content using a specific ELISA (BD Biosciences, San Diego, Calif.) with a lower detection limit of 4.7 pg/ml.
CD8^+ T cells from HLA-A2^+ normal donors or HLA-A2^+ melanoma patients recognize TASA-derived peptides in vitro. To assess whether the TASA-derived peptides identified in the HHD tumor model were also capable of being recognized by human CD8^+ T cells, IVS was performed using T cells isolated from the peripheral blood of HLA-A2^+ donors or HLA-A2^+ patients with melanoma. DC were pulsed with peptides derived from a given TASA for 4 h at 37° C., then washed and used as stimulator cells for autologous CD8^+ T cells. In cases where more than one peptide existed for a given protein, DC were pulsed with an equimolar (10 μM) mixture of each peptide. Two rounds of IVS using TASA for normal donors and a single-round of IVS using TASA for melanoma patients was applied. HLA-A2^+ normal donors (FIG. 4; Tables 4, 5A and 5B) and melanoma patients (FIG. 4; Tables 4, 5A and 5B) were each capable of recognizing many of the TASA-derived peptides.

EphA2: EphA2-derived peptide 883-891 pulsed onto DC or DC.IL12 (TLADFDPRV; listed as Homo sapiens)
Specific CD8+ T cell Production of IFN-γ in Response to TASA (donor Mel1, melanoma patient): + (Human responses were designated as + if T cell reactivity against T2 cells presenting the indicated peptide (IFN-γ ELISA) was >30 pg/ml and more than 2 fold higher than reactivity versus T2 cells pulsed with the negative control HIV-nef190-198 peptide) | Specific CD8+ T cell Production of IFN-γ in Response to TASA (donor Mel2, melanoma patient): + (Human responses were designated as + if T cell reactivity against T2 cells presenting the indicated peptide (IFN-γ ELISA) was >30 pg/ml and more than 2 fold higher than reactivity versus T2 cells pulsed with the negative control HIV-nef190-198 peptide) | Specific CD8+ T cell Production of IFN-γ in Response to TASA (donor Mel3, melanoma patient): + (Human responses were designated as + if T cell reactivity against T2 cells presenting the indicated peptide (IFN-γ ELISA) was >30 pg/ml and more than 2 fold higher than reactivity versus T2 cells pulsed with the negative control HIV-nef190-198 peptide) | Specific CD8+ T cell Production of IFN-γ in Response to TASA (donor Mel4, melanoma patient): + (Human responses were designated as + if T cell reactivity against T2 cells presenting the indicated peptide (IFN-γ ELISA) was >30 pg/ml and more than 2 fold higher than reactivity versus T2 cells pulsed with the negative control HIV-nef190-198 peptide) | Specific CD8+ T cell Production of IFN-γ in Response to TASA (donor Mel6, melanoma patient): + (Human responses were designated as + if T cell reactivity against T2 cells presenting the indicated peptide (IFN-γ ELISA) was >30 pg/ml and more than 2 fold higher than reactivity versus T2 cells pulsed with the negative control HIV-nef190-198 peptide) | Specific CD8+ T cell Production of IFN-γ in Response to TASA (donor Mel9, melanoma patient): + (Human responses were designated as + if T cell reactivity against T2 cells presenting the indicated peptide (IFN-γ ELISA) was >30 pg/ml and more than 2 fold higher than reactivity versus T2 cells pulsed with the negative control HIV-nef190-198 peptide) | Specific CD8+ T cell Production of IFN-γ in Response to TASA (donor ND3, normal donor): + (Human responses were designated as + if T cell reactivity against T2 cells presenting the indicated peptide (IFN-γ ELISA) was >30 pg/ml and more than 2 fold higher than reactivity versus T2 cells pulsed with the negative control HIV-nef190-198 peptide) | Specific CD8+ T cell Production of IFN-γ in Response to TASA (donor ND5, normal donor): + (Human responses were designated as + if T cell reactivity against T2 cells presenting the indicated peptide (IFN-γ ELISA) was >30 pg/ml and more than 2 fold higher than reactivity versus T2 cells pulsed with the negative control HIV-nef190-198 peptide)

LAALPHSCL (listed as Homo sapiens)
Specific CD8+ T Cell Response, HLA-A2+ Normal Donors (of 8) (number of responding donors of 8, response = IFN-γ >30 pg/ml and >2 fold HIV-nef control): 0 | Specific CD8+ T Cell Response, HLA-A2+ Melanoma Patients (of 10) (number of responding patients of 10, response = IFN-γ >30 pg/ml and >2 fold HIV-nef control): 5

RGS5: RGS5-derived peptide 5-13 pulsed onto DC or DC.IL12 (LAALPHSCL; listed as Homo sapiens)
Specific CD8+ T cell Production of IFN-γ in Response to TASA (donor Mel1, melanoma patient): + (Human responses were designated as + if T cell reactivity against T2 cells presenting the indicated peptide (IFN-γ ELISA) was >30 pg/ml and more than 2 fold higher than reactivity versus T2 cells pulsed with the negative control HIV-nef190-198 peptide) | Specific CD8+ T cell Production of IFN-γ in Response to TASA (donor Mel2, melanoma patient): + (Human responses were designated as + if T cell reactivity against T2 cells presenting the indicated peptide (IFN-γ ELISA) was >30 pg/ml and more than 2 fold higher than reactivity versus T2 cells pulsed with the negative control HIV-nef190-198 peptide) | Specific CD8+ T cell Production of IFN-γ in Response to TASA (donor Mel4, melanoma patient): + (Human responses were designated as + if T cell reactivity against T2 cells presenting the indicated peptide (IFN-γ ELISA) was >30 pg/ml and more than 2 fold higher than reactivity versus T2 cells pulsed with the negative control HIV-nef190-198 peptide) | Specific CD8+ T cell Production of IFN-γ in Response to TASA (donor Mel6, melanoma patient): + (Human responses were designated as + if T cell reactivity against T2 cells presenting the indicated peptide (IFN-γ ELISA) was >30 pg/ml and more than 2 fold higher than reactivity versus T2 cells pulsed with the negative control HIV-nef190-198 peptide) | Specific CD8+ T cell Production of IFN-γ in Response to TASA (donor Mel8, melanoma patient): + (Human responses were designated as + if T cell reactivity against T2 cells presenting the indicated peptide (IFN-γ ELISA) was >30 pg/ml and more than 2 fold higher than reactivity versus T2 cells pulsed with the negative control HIV-nef190-198 peptide)

TEM1: TEM1-derived peptide 691-700 pulsed onto DC or DC.IL12 (LLVPTCVFLV; listed as Homo sapiens)
Specific CD8+ T cell Production of IFN-γ in Response to TASA (donor Mel1, melanoma patient): + (Human responses were designated as + if T cell reactivity against T2 cells presenting the indicated peptide (IFN-γ ELISA) was >30 pg/ml and more than 2 fold higher than reactivity versus T2 cells pulsed with the negative control HIV-nef190-198 peptide) | Specific CD8+ T cell Production of IFN-γ in Response to TASA (donor Mel4, melanoma patient): + (Human responses were designated as + if T cell reactivity against T2 cells presenting the indicated peptide (IFN-γ ELISA) was >30 pg/ml and more than 2 fold higher than reactivity versus T2 cells pulsed with the negative control HIV-nef190-198 peptide) | Specific CD8+ T cell Production of IFN-γ in Response to TASA (donor Mel7, melanoma patient): + (Human responses were designated as + if T cell reactivity against T2 cells presenting the indicated peptide (IFN-γ ELISA) was >30 pg/ml and more than 2 fold higher than reactivity versus T2 cells pulsed with the negative control HIV-nef190-198 peptide) | Specific CD8+ T cell Production of IFN-γ in Response to TASA (donor Mel8, melanoma patient): + (Human responses were designated as + if T cell reactivity against T2 cells presenting the indicated peptide (IFN-γ ELISA) was >30 pg/ml and more than 2 fold higher than reactivity versus T2 cells pulsed with the negative control HIV-nef190-198 peptide) | Specific CD8+ T cell Production of IFN-γ in Response to TASA (donor ND1, normal donor): + (Human responses were designated as + if T cell reactivity against T2 cells presenting the indicated peptide (IFN-γ ELISA) was >30 pg/ml and more than 2 fold higher than reactivity versus T2 cells pulsed with the negative control HIV-nef190-198 peptide) | Specific CD8+ T cell Production of IFN-γ in Response to TASA (donor ND2, normal donor): + (Human responses were designated as + if T cell reactivity against T2 cells presenting the indicated peptide (IFN-γ ELISA) was >30 pg/ml and more than 2 fold higher than reactivity versus T2 cells pulsed with the negative control HIV-nef190-198 peptide) | Specific CD8+ T cell Production of IFN-γ in Response to TASA (donor ND3, normal donor): + (Human responses were designated as + if T cell reactivity against T2 cells presenting the indicated peptide (IFN-γ ELISA) was >30 pg/ml and more than 2 fold higher than reactivity versus T2 cells pulsed with the negative control HIV-nef190-198 peptide) | Specific CD8+ T cell Production of IFN-γ in Response to TASA (donor ND5, normal donor): + (Human responses were designated as + if T cell reactivity against T2 cells presenting the indicated peptide (IFN-γ ELISA) was >30 pg/ml and more than 2 fold higher than reactivity versus T2 cells pulsed with the negative control HIV-nef190-198 peptide)
